Results from article PMC12525688, “Anti-Helicobacter pylori Activity and Gastroprotective Effects of Diacetylcurcumin and Four Metal Derivatives” (Molecules, 2025).
Where two headings read alike, the source gives them in different places.

Legend:
[1] = target: T1, Helicobacter pylori urease (Helicobacter pylori, UniProt P69996); assay: Berthelot colorimetric urease activity assay with lysate supernatant (partially purified urease); format: biochemical
T1 construct: gene ureB; native urease from supernatant of sonicated H. pylori ATCC 43504; with urease subunit alpha (UreA)
T1 sequence (P14916 whole entry): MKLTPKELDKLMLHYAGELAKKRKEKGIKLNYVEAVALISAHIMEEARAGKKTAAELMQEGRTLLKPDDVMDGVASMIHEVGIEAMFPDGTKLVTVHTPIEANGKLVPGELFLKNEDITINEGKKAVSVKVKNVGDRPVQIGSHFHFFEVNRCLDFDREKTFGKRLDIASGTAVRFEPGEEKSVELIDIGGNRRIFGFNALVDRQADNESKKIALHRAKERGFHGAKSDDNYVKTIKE
T1 sequence (P69996 whole entry): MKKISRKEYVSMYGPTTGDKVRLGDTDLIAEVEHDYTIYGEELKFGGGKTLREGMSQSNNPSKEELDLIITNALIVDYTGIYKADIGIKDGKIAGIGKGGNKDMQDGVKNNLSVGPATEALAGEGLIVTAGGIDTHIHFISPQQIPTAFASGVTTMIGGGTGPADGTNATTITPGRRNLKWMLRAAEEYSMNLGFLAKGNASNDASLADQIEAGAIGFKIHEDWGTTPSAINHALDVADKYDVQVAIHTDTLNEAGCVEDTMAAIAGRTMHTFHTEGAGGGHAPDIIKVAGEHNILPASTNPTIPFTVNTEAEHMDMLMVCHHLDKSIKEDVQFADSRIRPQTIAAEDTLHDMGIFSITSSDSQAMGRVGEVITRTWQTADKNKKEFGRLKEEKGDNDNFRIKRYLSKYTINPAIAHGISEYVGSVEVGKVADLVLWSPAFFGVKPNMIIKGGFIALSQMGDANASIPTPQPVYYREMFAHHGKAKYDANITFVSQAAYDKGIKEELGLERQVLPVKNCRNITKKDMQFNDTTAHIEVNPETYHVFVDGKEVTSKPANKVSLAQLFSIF

E. coli DNA gyrase = target: T2, E. coli DNA gyrase (Escherichia coli, UniProt P0AES4+P0AES6); assay: DNA supercoiling assay (agarose gel), […] inhibition at […]; format: biochemical
T2 construct: gene gyrA; DNA gyrase of the TopoGEN E. coli DNA Gyrase Drug Screening kit; with DNA gyrase subunit B (GyrB)
T2 sequence (P0AES4 2-875, one chain of several): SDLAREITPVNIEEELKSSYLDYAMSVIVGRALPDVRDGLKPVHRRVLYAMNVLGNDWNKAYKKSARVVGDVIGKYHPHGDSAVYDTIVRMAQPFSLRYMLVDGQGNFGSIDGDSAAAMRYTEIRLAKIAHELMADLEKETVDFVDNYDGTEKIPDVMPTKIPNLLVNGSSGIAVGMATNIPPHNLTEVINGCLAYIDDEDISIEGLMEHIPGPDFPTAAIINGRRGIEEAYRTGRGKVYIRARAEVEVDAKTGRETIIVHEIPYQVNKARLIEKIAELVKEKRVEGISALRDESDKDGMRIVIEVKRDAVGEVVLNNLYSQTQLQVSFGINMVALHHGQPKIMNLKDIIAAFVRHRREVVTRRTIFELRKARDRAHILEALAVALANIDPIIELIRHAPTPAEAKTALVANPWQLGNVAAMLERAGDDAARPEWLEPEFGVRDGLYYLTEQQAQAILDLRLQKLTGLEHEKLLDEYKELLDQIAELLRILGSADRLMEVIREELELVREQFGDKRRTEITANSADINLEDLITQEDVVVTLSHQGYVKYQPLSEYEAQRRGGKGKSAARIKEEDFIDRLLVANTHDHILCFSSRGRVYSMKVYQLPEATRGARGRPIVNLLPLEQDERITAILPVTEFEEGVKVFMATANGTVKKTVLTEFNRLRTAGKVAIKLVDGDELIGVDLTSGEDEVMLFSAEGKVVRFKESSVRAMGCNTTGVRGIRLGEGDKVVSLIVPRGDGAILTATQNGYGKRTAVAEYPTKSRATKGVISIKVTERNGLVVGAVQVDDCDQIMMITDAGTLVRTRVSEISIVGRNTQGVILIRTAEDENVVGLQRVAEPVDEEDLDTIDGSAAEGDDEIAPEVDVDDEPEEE

| Compound | IC50 [1] | also measured |
| --- | --- | --- |
| COc1cc(/C=C/C(=O)C=C(/C=C/c2ccc(OC(C)=O)c(OC)c2)[O][Zn][O]C(=CC(=O)/C=C/c2ccc(OC(C)=O)c(OC)c2)/C=C/c2ccc(OC(C)=O)c(OC)c2)ccc1OC(C)=O [DAC2-Zn] | 12.4 µM |  |
| O=C(O)c1cn(C2CC2)c2cc(N3CCNCC3)c(F)cc2c1=O [ciprofloxacin] |  | inhibition at 3 µM (E. coli DNA gyrase): 100% |
| CC(=O)NO [AHA, acetohydroxamic acid] |  | IC50 ([1]; read-out: IC50): 488 µM |
| COc1cc(/C=C/C(=O)C=C(/C=C/c2ccc(OC(C)=O)c(OC)c2)[O][Cu][O]C(=CC(=O)/C=C/c2ccc(OC(C)=O)c(OC)c2)/C=C/c2ccc(OC(C)=O)c(OC)c2)ccc1OC(C)=O [DAC2-Cu] | 20.4 µM |  |
